Results taken from patent publication US10786485B1, “Charged ion channel blockers and methods for use” (Nocion Therapeutics, Inc., priority 2019, dated 2020).
Structures can show the parent of a compound that is named as a salt.

Key:
[1] = target: T1, NaV1.7 (Homo sapiens, UniProt Q15858); test: Whole cell patch clamp, external block of Nav1.7 current; assay type: cell-based; conditions: test concentration of 30 μM; compound in external solution for 5 minutes; 5 Hz stimulation; read-out: Nav1.7 extracellular inhibition
T1 construct: expressed in transfected cells; host or cells: tetracycline-inducible cell line kept under hygromycin and blasticidin
Protocol: NaV1.7 was expressed upon induction with tetracycline. Cells were cultured in DMEM containing 10% dialyzed Fetal Bovine Serum (VWR, Radnor, Pa.), 1% Glutamax (VWR, Radnor, Pa.), 1% Penicillin-Streptomycin (VWR, Radnor, Pa.), 100 mg/L Hygromycin (Thermo Fisher Scientific, Waltham, Mass. and 5 mg/L Blasticidin (Alfa Aesar, Haverhill, Mass.). Cells were grown and maintained at 37° C. in a humidified environment containing 10% CO2 in air. Cells were detached from the culture flask for passage and harvested using 0.05% Trypsin-EDTA (Thermo Fisher Scientific, Waltham, Mass.). To induce NaV1.7, cells were induced with tetracycline (0.1-1 μg/mL, IBI Scientific, Peosta, Iowa) the day before recording and plated onto 24-well plates. […] For one 24-well plate, 2 mL of cell suspension was mixed with 23 mL of fresh growth media and 0.1-1 μg/mL tetracycline added. 1 ml of mixed media with cells was then added to each well of a 24-well plate, with a 12 mm coverslip already placed in the bottom of the well. Cells were then incubated in 37° C. and 10% CO2 overnight. The intracellular solution contained the following (in mM) CsCl 135, NaCl 10, EGTA 10, HEPES 10, MgCl2 2, adjusted to pH 7.2 with CsOH. The external solution was a normal Ringer solution containing (in mM) NaCl 155, HEPES 10, glucose 10, KCl 3.5, CaCl2 1.5, MgCl2 1 adjusted to pH 7.4 with NaOH. CsCl is from Alfa Aesar, Haverhill, Mass. All other chemicals are from Sigma-Aldrich, St. Louis, Mo. In order to test the degree of internal block by test compounds the compounds were dissolved in internal solution at the indicated test concentration. […] In order to test the degree of external block by test compounds the compounds were dissolved in external solution at the indicated test concentration. 18-24 hours after cells were induced with tetracycline, coverslips were placed into a chamber filled with Normal Ringer solution at room temperature and the chamber placed on a microscope. Pipettes were pulled from borosilicate glass on a P97 puller (Sutter Instrument, Novato, Calif.) and polished with a MF-830 Microforge (Narishige International USA, Inc, Amityville, N.Y.) to have a resistance of 1.5-2.5 MΩ when filled with CsCl internal solution at room temperature. Healthy cells (those that are round and translucent with no visible blemishes) were chosen for seal formation. A seal was formed between the pipette and the cell, and a brief pulse of suction was used to “break in” and establish the whole-cell configuration. The membrane potential was held at −100 mV before the voltage protocol began. Only cells with series resistance between 1.5-5 MΩ were retained for analysis. The voltage protocol was as follows: Cells were held at −100 mV for 12 ms followed by a hyperpolarizing step to −105 mV for 12 ms to monitor the leak. Cells were then stepped back to −100 mV for 40 ms. Cells were then depolarized to −20 mV for 10 ms and then returned to −100 mV for 26 ms (The FIGURE). Once the recording was started, the voltage protocol was run at 30 second intervals for 5 minutes to get a stable baseline. This is followed by 5 Hz stimulation of the same voltage protocol run until the end of experiment. […] Currents were recorded using PatchMaster software with Heka EPC10 (HEKA Electronics, Lambrecht, Germany). […] The data was plotted using the Patchmaster software (HEKA Electronics, Lambrecht, Germany) and analyzed by plotting the minimum current during the voltage step to −20 mV (peak inward current) as a function of time. […]

[2] = PAMPA membrane permeability assay; assay type: in vitro ADME; conditions: GIT lipid, buffer pH 7.4, incubated 4 hours
Protocol: The PAMPA assay (pION, Inc., Woburn Mass.) was used to determine the ability of compounds of the invention to cross an artificial lipid membrane by passive diffusion. Test compounds were dissolved in DMSO (10 mM) and diluted 200-fold in buffer (pION Inc., pH 7.4) to provide 50 uM stock solutions. Buffer (150 μL) was added to a UV blank plate and stock solutions (150 μL) were transferred to a UV reference plate. The blank and reference spectrum were read using a spectrophotometer. Stock solutions (200 μL) were added to the donor plate of the PAMPA sandwich plate and an accept plate painted with GIT lipid (pION Inc, 5 μL) was placed on top. Buffer (200 μL) was added to the acceptor plate and the PAMPA sandwich plate was incubated for 4 hours. Aliquots (150 μL) from the acceptor plate were added to a UV plate and read as acceptor spectrum. Aliquots (150 μL) of the donor solutions were added to a UV analysis plate and read as donor spectrum. The permeability coefficient of test compounds was calculated using PAMPA Explorer™ software (version 3.5.0.4) based on the AUC of the reference plate, the donor plate, and the acceptor plate.

[3] = target: T1, NaV1.7; test: Whole cell patch clamp, internal block of Nav1.7 current; assay type: cell-based; conditions: test concentration of 10 μM; compound dissolved in internal solution; 5 Hz stimulation; read-out: Nav1.7 intracellular inhibition
Protocol: NaV1.7 was expressed upon induction with tetracycline. Cells were cultured in DMEM containing 10% dialyzed Fetal Bovine Serum (VWR, Radnor, Pa.), 1% Glutamax (VWR, Radnor, Pa.), 1% Penicillin-Streptomycin (VWR, Radnor, Pa.), 100 mg/L Hygromycin (Thermo Fisher Scientific, Waltham, Mass. and 5 mg/L Blasticidin (Alfa Aesar, Haverhill, Mass.). Cells were grown and maintained at 37° C. in a humidified environment containing 10% CO2 in air. Cells were detached from the culture flask for passage and harvested using 0.05% Trypsin-EDTA (Thermo Fisher Scientific, Waltham, Mass.). To induce NaV1.7, cells were induced with tetracycline (0.1-1 μg/mL, IBI Scientific, Peosta, Iowa) the day before recording and plated onto 24-well plates. […] For one 24-well plate, 2 mL of cell suspension was mixed with 23 mL of fresh growth media and 0.1-1 μg/mL tetracycline added. 1 ml of mixed media with cells was then added to each well of a 24-well plate, with a 12 mm coverslip already placed in the bottom of the well. Cells were then incubated in 37° C. and 10% CO2 overnight. The intracellular solution contained the following (in mM) CsCl 135, NaCl 10, EGTA 10, HEPES 10, MgCl2 2, adjusted to pH 7.2 with CsOH. The external solution was a normal Ringer solution containing (in mM) NaCl 155, HEPES 10, glucose 10, KCl 3.5, CaCl2 1.5, MgCl2 1 adjusted to pH 7.4 with NaOH. CsCl is from Alfa Aesar, Haverhill, Mass. All other chemicals are from Sigma-Aldrich, St. Louis, Mo. In order to test the degree of internal block by test compounds the compounds were dissolved in internal solution at the indicated test concentration. […] In order to test the degree of external block by test compounds the compounds were dissolved in external solution at the indicated test concentration. 18-24 hours after cells were induced with tetracycline, coverslips were placed into a chamber filled with Normal Ringer solution at room temperature and the chamber placed on a microscope. Pipettes were pulled from borosilicate glass on a P97 puller (Sutter Instrument, Novato, Calif.) and polished with a MF-830 Microforge (Narishige International USA, Inc, Amityville, N.Y.) to have a resistance of 1.5-2.5 MΩ when filled with CsCl internal solution at room temperature. Healthy cells (those that are round and translucent with no visible blemishes) were chosen for seal formation. A seal was formed between the pipette and the cell, and a brief pulse of suction was used to “break in” and establish the whole-cell configuration. The membrane potential was held at −100 mV before the voltage protocol began. Only cells with series resistance between 1.5-5 MΩ were retained for analysis. The voltage protocol was as follows: Cells were held at −100 mV for 12 ms followed by a hyperpolarizing step to −105 mV for 12 ms to monitor the leak. Cells were then stepped back to −100 mV for 40 ms. Cells were then depolarized to −20 mV for 10 ms and then returned to −100 mV for 26 ms (The FIGURE). Once the recording was started, the voltage protocol was run at 30 second intervals for 5 minutes to get a stable baseline. […] Currents were recorded using PatchMaster software with Heka EPC10 (HEKA Electronics, Lambrecht, Germany). […] The data was plotted using the Patchmaster software (HEKA Electronics, Lambrecht, Germany) and analyzed by plotting the minimum current during the voltage step to −20 mV (peak inward current) as a function of time. […]

T1 sequence (Q15858 whole entry): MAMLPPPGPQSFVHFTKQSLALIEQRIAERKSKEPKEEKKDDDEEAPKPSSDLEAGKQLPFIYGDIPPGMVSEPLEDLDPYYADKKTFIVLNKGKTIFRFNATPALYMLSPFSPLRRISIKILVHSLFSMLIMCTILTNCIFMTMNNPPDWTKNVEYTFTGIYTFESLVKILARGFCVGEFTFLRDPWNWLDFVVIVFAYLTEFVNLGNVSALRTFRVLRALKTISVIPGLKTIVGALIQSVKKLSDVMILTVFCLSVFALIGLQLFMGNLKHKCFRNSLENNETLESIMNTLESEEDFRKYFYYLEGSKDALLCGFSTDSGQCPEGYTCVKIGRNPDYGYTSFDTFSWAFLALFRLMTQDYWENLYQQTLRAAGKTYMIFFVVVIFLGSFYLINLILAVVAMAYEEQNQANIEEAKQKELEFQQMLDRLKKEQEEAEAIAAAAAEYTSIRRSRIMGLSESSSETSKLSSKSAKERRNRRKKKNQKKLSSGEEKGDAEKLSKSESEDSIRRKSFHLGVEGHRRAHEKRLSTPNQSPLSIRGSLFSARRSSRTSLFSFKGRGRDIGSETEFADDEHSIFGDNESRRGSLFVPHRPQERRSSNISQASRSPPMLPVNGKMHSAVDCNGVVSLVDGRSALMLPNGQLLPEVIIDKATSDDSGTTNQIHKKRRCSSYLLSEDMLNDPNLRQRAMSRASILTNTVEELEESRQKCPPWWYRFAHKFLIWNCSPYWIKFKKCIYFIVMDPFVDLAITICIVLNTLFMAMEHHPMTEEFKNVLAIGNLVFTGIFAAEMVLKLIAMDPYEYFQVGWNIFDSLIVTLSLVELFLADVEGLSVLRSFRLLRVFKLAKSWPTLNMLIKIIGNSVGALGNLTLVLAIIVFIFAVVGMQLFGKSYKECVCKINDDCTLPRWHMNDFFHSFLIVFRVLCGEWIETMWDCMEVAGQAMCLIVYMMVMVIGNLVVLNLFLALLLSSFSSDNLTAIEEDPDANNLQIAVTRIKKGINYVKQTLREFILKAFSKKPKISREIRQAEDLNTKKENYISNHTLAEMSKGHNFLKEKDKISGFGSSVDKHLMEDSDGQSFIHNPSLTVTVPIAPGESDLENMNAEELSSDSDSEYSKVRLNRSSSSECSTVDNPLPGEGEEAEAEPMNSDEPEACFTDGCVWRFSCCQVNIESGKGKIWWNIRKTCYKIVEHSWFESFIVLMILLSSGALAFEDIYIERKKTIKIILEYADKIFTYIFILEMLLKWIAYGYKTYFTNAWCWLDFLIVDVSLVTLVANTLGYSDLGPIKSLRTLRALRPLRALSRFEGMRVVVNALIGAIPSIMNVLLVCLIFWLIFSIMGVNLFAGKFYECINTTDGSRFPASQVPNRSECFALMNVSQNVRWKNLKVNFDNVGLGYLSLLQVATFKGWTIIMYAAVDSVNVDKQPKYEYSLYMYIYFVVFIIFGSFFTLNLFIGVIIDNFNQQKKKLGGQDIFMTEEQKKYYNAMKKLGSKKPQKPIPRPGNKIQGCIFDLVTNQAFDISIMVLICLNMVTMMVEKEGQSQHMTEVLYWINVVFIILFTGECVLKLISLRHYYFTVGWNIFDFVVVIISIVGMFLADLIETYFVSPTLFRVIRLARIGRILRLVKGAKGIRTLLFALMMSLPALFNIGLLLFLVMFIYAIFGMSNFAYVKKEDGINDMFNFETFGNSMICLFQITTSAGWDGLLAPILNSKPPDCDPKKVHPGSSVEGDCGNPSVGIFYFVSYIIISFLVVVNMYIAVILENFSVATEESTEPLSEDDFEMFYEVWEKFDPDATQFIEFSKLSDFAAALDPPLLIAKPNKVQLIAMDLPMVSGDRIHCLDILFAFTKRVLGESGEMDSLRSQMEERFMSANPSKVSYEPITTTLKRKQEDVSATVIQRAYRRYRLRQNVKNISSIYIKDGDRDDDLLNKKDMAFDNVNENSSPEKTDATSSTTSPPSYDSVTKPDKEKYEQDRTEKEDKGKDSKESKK

SMILES | inhibition at 30 µM [1] [%] | Papp at 4 h, 50 µM [2] [×10⁻⁶ cm/s] | inhibition at 10 µM [3] [%]
Cc1cccc(C)c1NC(=O)C[n+]1cccn1CC(C)C.[Br-] [Compound 2′A, 2-(2-((2,6-dimethylphenyl)amino)-2-oxoethyl)-1-isobutyl-1H-pyrazol-2-ium bromide] | < 25 | ≤ 1.2 | > 65
CCNC(=O)Cn1ccc[n+]1CC(=O)Nc1c(C)cccc1C.[Br-] [Compound 5′A, 2-(2-((2,6-dimethylphenyl)amino)-2-oxoethyl)-1-(2-(ethylamino)-2-oxoethyl)-1H-pyrazol-2-ium bromide] | < 25 | ≤ 1.2 | > 65
Cc1cccc(C)c1NC(=O)C[n+]1cccn1C1CCCCC1.[Br-] [Compound 3′A, 1-cyclohexyl-2-(2-((2,6-dimethylphenyl)amino)-2-oxoethyl)-1H-pyrazol-2-ium bromide] | < 25 | ≤ 1.2 | > 65
Cc1cn(C)[n+](CC(=O)Nc2c(C)cccc2C)c1 [1′A, 2-(2-((2,6-dimethylphenyl)amino)-2-oxoethyl)-1,4-dimethyl-1H-pyrazol-2-ium bromide] | < 25 |  | > 65
Cc1cccc(C)c1NC(=O)C[n+]1cccn1-c1ccccc1 [4′A, 2-(2-((2,6-dimethylphenyl)amino)-2-oxoethyl)-1-phenyl-1H-pyrazol-2-ium Formate] | < 25 |  | > 65
